The values below come from US20260216239A1 (Arizona Board of Regents on Behalf of the University of …, priority 2020, published 2026).

Entries after “also recorded” stand apart in the source; their conditions may differ.

For one experiment, the system named is Bothrops moojeni venom. The experiment in a line: Thrombelastography in human plasma of venom procoagulant activity after isolated exposure of venom to compounds. The experiment is classed as biochemical. The conditions noted are these: venom 2 μg/ml in plasma; for procoagulant activity of venom: venom exposed ≥5 min in PBS to 1 mM CORM-2, 100 μM RuCl3 or both, vs venom alone. How it is done:
Thrombelastographic analyses. The volumes of subsequently described plasmatic and other additives summed to a final volume of 360 μl. Samples were composed of 320 μl of plasma; 16.4 μl of PBS, 20 μl of 200 mM CaCl2), and 3.6 μl of PBS or venom mixture, which were pipetted into a disposable cup in a Thrombelastograph® hemostasis system (Model 5000, Haemonetics Inc., Braintree, MA, USA) at 37° C., and then rapidly mixed by moving the cup up against and then away from the plastic pin five times. The following viscoelastic parameters described previously (see, Nielsen V G (2019) J Thromb Thrombolysis 47, 73-79; Gessner G, et al., (2017) Eur J Pharmacol 815, 33-41; Nielsen V G, Wagner M T, Frank N (2020) Int J Mol Sci 21, 2082; Lazić D, Arsenijević A, Puchta R, Bugarčić ŽD, Rilak A (2016) Dalton Trans 45, 4633; Hanif M, et al., (2017) ChemPlusChem 82, 841-847) were measured: time to maximum rate of thrombus generation (TMRTG): this is the time interval (minutes) observed prior to maximum speed of clot growth; maximum rate of thrombus generation (MRTG): this is the maximum velocity of clot growth observed (dynes/cm^2/second); and total thrombus generation (TTG, dynes/cm^2), the final viscoelastic resistance observed after clot formation.
B. moojeni. This venom was exposed to 0 or 1 mM CORM-2 in the presence of 0 or 100 μM RuCl3 in PBS for at least 5 minutes at room temperature prior to placement into plasma followed immediately with commencement of thrombelastographic analysis. The final concentration of this venom in plasma was 2 μg/ml.
Given the aforementioned, the experimental conditions utilized were: 1) V condition—venom in PBS; 2) Ru(II) condition—venom exposed to CORM-2; 3) Ru(III) condition—venom exposed to RuCl3; 4) Ru(II+III) condition—venom exposed to CORM-2 and RuCl3 simultaneously. After the 5 minute period at room temperature, 3.6 μl of one of these solutions was added to the plasma sample in the plastic thrombelastograph cup.
(§1) The volumes of subsequently described plasmatic and other additives summed to a final volume of 360 μl. Samples were composed of 320 μl of plasma; 16.4 μl of PBS, 20 μl of 200 mM CaCl2), and 3.6 μl of PBS or venom mixture, which were pipetted into a disposable cup in a Thrombelastograph® hemostasis system (Model 5000, Haemonetics Inc., Braintree, MA, USA) at 37° C., and then rapidly mixed by moving the cup up against and then away from the plastic pin five times. The following viscoelastic parameters described previously (see, Nielsen, V. G. J Thromb Thrombolysis 2019, 47, 73-79; Gessner, G.; et al., Eur J Pharmacol 2017, 815, 33-41; Nielsen, V. G.; Wagner, M. T.; Frank, N. Int J Mol Sci 2020, 21, 2082; Lazid, D.; et al., Dalton Trans 2016, 45, 4633; Hanif, M.; et al., ChemPlusChem 2017, 82, 841-847) were measured: time to maximum rate of thrombus generation (TMRTG): this is the time interval (minutes) observed prior to maximum speed of clot growth; maximum rate of thrombus generation (MRTG): this is the maximum velocity of clot growth observed (dynes/cm2/second); and total thrombus generation (TTG, dynes/cm2), the final viscoelastic resistance observed after clot formation.
B. moojeni. This venom was exposed to 0 or 1 mM CORM-2 or CORM-3 in the presence of 0 or 100 μM RuCl3 in PBS for at least 5 minutes at room temperature prior to placement into plasma followed immediately with commencement of thrombelastographic analysis. This venom was also exposed to 0 or 1 mM CORM-2 in the presence of 0 or 100 μM carboplatin in another series of experiments. The final concentration of this venom in plasma was 2 μg/ml.
Given the aforementioned, the experimental conditions utilized were: 1) V condition—venom in PBS; 2) Ru(II) condition—venom exposed to CORM-2 or CORM-3; 3) Ru(III) condition—venom exposed to RuCl3; 4) Ru(II+III) condition—venom exposed to CORM-2 or CORM-3 and RuCl3 simultaneously; 5) Pt(II) condition—venom exposed to carboplatin; and 6) Pt+Ru condition—venom exposed to carboplatin and CORM-2.

In the next experiment the test system is human plasma. The conditions noted are these: cited from earlier work.
Experiment [1] deals with Heloderma suspectum venom. The experiment in a line: Thrombelastography in human plasma of venom procoagulant activity after isolated exposure of venom to compounds. The conditions noted are these: venom 10 μg/ml in plasma. The experiment is classed as biochemical. How it is done:
as §1
H. suspectum. This venom was exposed to 0 or 1 mM CORM-3 in the presence of 0 or 100 μM RuCl3 in PBS for at least 5 minutes at room temperature prior to placement into plasma followed immediately with commencement of thrombelastographic analysis. The final concentration of this venom in plasma was 10 μg/ml.
Given the aforementioned, the experimental conditions utilized were: 1) V condition—venom in PBS; 2) Ru(II) condition—venom exposed to CORM-2 or CORM-3; 3) Ru(III) condition—venom exposed to RuCl3; 4) Ru(II+III) condition—venom exposed to CORM-2 or CORM-3 and RuCl3 simultaneously; 5) Pt(II) condition—venom exposed to carboplatin; and 6) Pt+Ru condition—venom exposed to carboplatin and CORM-2. After the 5 minute period at room temperature, 3.6 μl of one of these solutions was added to the plasma sample in the plastic thrombelastograph cup.

Setting [2] is: 100 μM carboplatin, 1 mM CORM-2 or both.
Where [3] appears, read: 1 mM CORM-2, 100 μM RuCl3 or both.
Where [4] appears, read: 1 mM CORM-3, 100 μM RuCl3 or both.
Where [5] appears, read: venom exposed ≥5 min in PBS to 1 mM CORM-3, 100 μM RuCl3 or both.

Turning to `[C-]#[O+].[C-]#[O+].[C-]#[O+].[C-]#[O+].[C-]#[O+].[C-]#[O+].[Cl][Ru][Cl].[Cl][Ru][Cl]` [CORM-2, tricarbonyldichlororuthenium(II) dimer], the “maximum rate of thrombus generation (MRTG)” value (“maximum rate … (MRTG)” below) in the experiment with Bothrops moojeni venom (setting [2]) is on record as “decreased”; in the experiment with Bothrops moojeni venom (setting [3]), “decrease”. The “time to maximum rate of thrombus generation (TMRTG)” value (“time to maximum rate” for short) in the experiment with Bothrops moojeni venom (setting [2]) was “significantly increased”; in the experiment on Bothrops moojeni venom (setting [3]), “prolonged; also recorded: significant increase”. Further, the “procoagulant activity of venom” value in the experiment with Bothrops moojeni venom was “significant loss of activity; also recorded: inhibition of procoagulant activity”. The coagulation kinetics result with human plasma (1 μM CORM-2) is “does not affect”. In addition, in the experiment with human plasma (up to 10 μM CORM-2 in PBS), the plasmatic coagulation kinetics entry is reported as “no effect”.

Consider `[Cl][Ru]([Cl])[Cl]` [RuCl3, ruthenium(III) chloride], for which, in the experiment on Bothrops moojeni venom (setting [4]), the “maximum rate … (MRTG)” value is recorded as “did not significantly change” and the “total thrombus generation (TTG)” value is listed as “significantly increased”. The “procoagulant activity of venom” value with Bothrops moojeni venom is given as “no significant effect; also recorded: did not significantly diminish”. Further, the “time to maximum rate” value in the experiment with Bothrops moojeni venom (setting [5]) is on record as “significant increase”. The “procoagulant activity of venom / coagulation kinetic parameters” value in experiment [1] (setting [5]) is “no significant changes in any of the coagulation kinetic parameters”. In addition, the human plasmatic coagulation result with human plasma (RuCl3 at or below 1 μM) is “does not significantly affect”.

On to “Tricarbonylchloro(glycinato)ruthenium [CORM-3]”, for which, in the experiment with Bothrops moojeni venom (setting [4]), the “maximum rate … (MRTG)” value is on record as “did not significantly change” and the “total thrombus generation (TTG)” value is “significantly increased”. Also, in the experiment with Bothrops moojeni venom (setting [5]), the “time to maximum rate” value is given as “significant increase”. Also, in experiment [1] (setting [4]), the “maximum rate … (MRTG)” value was “no change”, the “time to maximum rate” value was “significant increase” and the “total thrombus generation (TTG)” value was “no change”.
